We go through four molecules from US20260042759A1, “INHIBITOR CONTAINING BICYCLIC DERIVATIVE, PREPARATION METHOD THEREFOR AND USE THEREOF” (SHANGHAI HANSOH BIOMEDICAL CO., LTD., priority 2019, published 2026).

In one data set the target is T1, Ba/F3 KIF5B-RET cells (Homo sapiens, UniProt P07949).
T1 construct: fused on or other part: P33176 (Kinesin-1 heavy chain)
Put plainly: Ba/F3 KIF5B-RET cell proliferation (CellTiter-Glo). The settings on record: 72 to 144 hours, read-out: Ba/F3 KIF5B-RET IC50. Type of data set: cell-based. The procedure:
When Ba/F3 KIF5B-RET cells were cultured to the appropriate cell density, cells were collected, and the cells were adjusted to the appropriate cell concentration using complete medium, and the cell suspension was spread in a 96-well plate, 90 μL per well, and placed in a 37° C., 5% CO2 incubator for overnight; compound solutions of different concentrations were prepared using DMSO and culture medium; a solvent control was set, and the compound solution was added to a 96-well plate with 10 μL per well at 37° C. in a 5% CO2 incubator for 72 to 144 hours; CellTiter-Glo solution was added thereto and mixed well by shaking, incubated for 10 min in the dark, and read by BioTek Synergy H1 microplate reader.
The luminescence signal values were used to calculate the inhibition rate, the concentrations and the inhibition rates were fitted to a nonlinear regression curve using Graphpad Prism software.

The next data set addresses T2, RET (Homo sapiens, UniProt P07949).
T2 construct: purchased Carna 08-159
Briefly: HTRF kinase assay, RET wild-type. Type of data set: biochemical. The settings on record: ATP at Km. The source says:
(§1) • RET enzyme was purchased from Carna Company, and the article number was 08-159; • RET M918T enzyme was purchased from Carna Company, and the article number was 08-508; • KIF5B-RET was purchased from SignalChem Company, the article number was R02-19FG-05; • CCDC6-RET was purchased from SignalChem Company, the article number was R02-19BG-05; • RET V804M enzyme was purchased from Thermofisher Company, and the article number was PV6223; • RET V804L enzyme was purchased from Thermofisher Company, and the article number was PV4397; • HTRF KinEASE-TK kit was purchased from Cisbio Company, and the article number was 62TK0PEC; • ATP was purchased from Thermofisher Company, and the article number was PV3227; • 384-well plate was purchased from PerkinElmer Company, and the article number was 6007290.
(§2) In this experiment, the homogeneous time-resolved fluorescence (HTRF) method was used for the detection of compounds on RET kinase activity.
(In general: In TR-FRET formats the signal depends on donor and acceptor labels being close together.)

The target of a further data set is T3, KDR kinase (Homo sapiens, UniProt P35968).
T3 construct: purchased Carna 08-191
Put plainly: HTRF kinase assay, KDR. Format: biochemical. The settings on record: for IC50: HTRF, ATP at Km; for Ratio (KDR/RET): KDR IC50 / RET IC50. The source says:
• KDR kinase was purchased from Carna Company, and the article number was 08-191; • HTRF KinEASE-TK kit was purchased from Cisbio Company, and the article number was 62TK0PEC; • ATP was purchased from Thermofisher Company, and the article number was PV3227; • 384-well plate was purchased from PerkinElmer Company, and the article number was 6007290.
In this experiment, the homogeneous time-resolved fluorescence (HTRF) method was used for the detection of compounds on KDR kinase activity.

The subject of data set [1] is TT cells (MTC, RET C634W). Briefly: TT cell proliferation (CellTiter-Glo). The settings on record: Homo sapiens, TT, 72 h. Format: cell-based, human. As for the experimental part:
When TT cells were cultured to the appropriate fusion level, TT cells were collected, and the cells were adjusted to the appropriate cell concentration using complete medium, and the cell suspension was spread in a 96-well plate, 90 µL per well, and placed in a 37° C., 5% CO2 incubator overnight; and compound solutions of different concentrations were prepared using DMSO and culture medium; and a solvent control was set, the compound solution was added to a 96-well plate, 10 µL per well, at 37° C. in a 5% CO2 incubator for 72 hours; CellTiter-Glo solution was added thereto and the mixture was mixed well by shaking, incubated for 10 min in the dark, and read by BioTek Synergy H1 microplate reader.
The luminescence signal values were used to calculate the inhibition rate, the concentration and the inhibition rate were fitted to a nonlinear regression curve using Graphpad Prism software.

For data set [2], the system named is phosphorylation of ERK, a downstream signal factor of TT cells. Briefly: ERK phosphorylation in TT cells (Western Blot). Format: cell-based, human. The settings on record: 3.7-300 nM, 2 hours. As for the experimental part:
In this experiment, the inhibitory effect of compounds on the phosphorylation level of ERK, a downstream signaling factor in TT cells, was measured by Western Blot method. When TT cells were cultured to the appropriate fusion degree, the cells were collected and adjusted to a suitable cell concentration using complete medium, the cell suspension was spread in a 24-well plate, 1 mL per well, and placed in a 37° C., 5% CO2 incubator overnight, and compound dilutions of different concentrations (3.7 nM, 11.1 nM, 33.3 nM, 100 nM, 300 nM) were added at 37° C. and acted for 2 hours; the cell supernatant was aspirated, washed one time with PBS, and the proteins were collected with lysate; after protein denaturation, Western blot experiments were performed: performing protein electrophoresis at 120V for approximately 75 minutes, followed by 45 minutes of transfer to PVDF membranes at 10V with a semi-dry transfer instrument, enclosing at 5% BSA for 1 hour at room temperature, and then PVDF membranes were cut into strips of appropriate size and incubated with prepared antibody dilutions overnight at 4° C. and washed 6 times with TBST, followed by imaging with goat anti-mouse secondary antibody and sheep anti-rabbit secondary antibody for 1 hour at room temperature, and the membrane was washed 6 times with TBST for imaging in the Biorad ChemiDoc™ MP Imaging System.
The inhibitory effect of compounds on ERK phosphorylation levels in TT cells at different concentrations was determined by detecting protein bands.

The target of a further data set is T4, RET M918T (Homo sapiens, UniProt P07949, M918T).
T4 construct: purchased Carna 08-508
Briefly: HTRF kinase assay, RET M918T. Type of data set: biochemical. The settings on record: ATP at Km.
Description: as §1, §2

A short description of data set [3]: Balb/C mouse pharmacokinetics, oral. Type of data set: in vivo. The settings on record: male, mouse, po, Balb/C mice, p.o., 5 mg/kg, plasma. As for the experimental part:
The pharmacokinetic behavior of the following compound embodiments, administered orally at a dose of 5 mg/kg in plasma in mice, was studied using Balb/C mice as test animals.
Balb/C Mouse 6/embodiment, male, Shanghai Jiesijie Laboratory Animal Co., Ltd, Animal Production License No. (SCXK (Shanghai) 2013-0006 N0.311620400001794).
Balb/C mice, males; p.o. after overnight fasting, respectively, at a dose of 5 mg/kg, administered in a volume of 10 mL/kg.
0.5% CMC-Na(1% Tween80) was dissolved by ultrasound, and prepared into clear solution or uniform suspension.
Before and after administration, 0.1 mL of blood was collected from mice at 0, 0.5, 1, 2, 4, 6, 8 and 24 hours by orbital collection, placed in EDTA-K2 tubes, centrifuged at 6000 rpm at 4° C. for 6 min to separate plasma, and stored at −80° C.
40 μL of plasma sample was precipitated by adding 160 μL of acetonitrile, mixed and centrifuged at 3500×g for 5-20 min.
100 μL of the supernatant solution after treatment was taken to analyze the concentration of the test compound by LC/MS/MS.
The main pharmacokinetic parameters were calculated using WinNonlin 6.1 and the results of the mouse pharmacokinetic experiments were shown in Table 8 below.

Molecules are shown by their SMILES.

T3 sequence (P35968 20-1356): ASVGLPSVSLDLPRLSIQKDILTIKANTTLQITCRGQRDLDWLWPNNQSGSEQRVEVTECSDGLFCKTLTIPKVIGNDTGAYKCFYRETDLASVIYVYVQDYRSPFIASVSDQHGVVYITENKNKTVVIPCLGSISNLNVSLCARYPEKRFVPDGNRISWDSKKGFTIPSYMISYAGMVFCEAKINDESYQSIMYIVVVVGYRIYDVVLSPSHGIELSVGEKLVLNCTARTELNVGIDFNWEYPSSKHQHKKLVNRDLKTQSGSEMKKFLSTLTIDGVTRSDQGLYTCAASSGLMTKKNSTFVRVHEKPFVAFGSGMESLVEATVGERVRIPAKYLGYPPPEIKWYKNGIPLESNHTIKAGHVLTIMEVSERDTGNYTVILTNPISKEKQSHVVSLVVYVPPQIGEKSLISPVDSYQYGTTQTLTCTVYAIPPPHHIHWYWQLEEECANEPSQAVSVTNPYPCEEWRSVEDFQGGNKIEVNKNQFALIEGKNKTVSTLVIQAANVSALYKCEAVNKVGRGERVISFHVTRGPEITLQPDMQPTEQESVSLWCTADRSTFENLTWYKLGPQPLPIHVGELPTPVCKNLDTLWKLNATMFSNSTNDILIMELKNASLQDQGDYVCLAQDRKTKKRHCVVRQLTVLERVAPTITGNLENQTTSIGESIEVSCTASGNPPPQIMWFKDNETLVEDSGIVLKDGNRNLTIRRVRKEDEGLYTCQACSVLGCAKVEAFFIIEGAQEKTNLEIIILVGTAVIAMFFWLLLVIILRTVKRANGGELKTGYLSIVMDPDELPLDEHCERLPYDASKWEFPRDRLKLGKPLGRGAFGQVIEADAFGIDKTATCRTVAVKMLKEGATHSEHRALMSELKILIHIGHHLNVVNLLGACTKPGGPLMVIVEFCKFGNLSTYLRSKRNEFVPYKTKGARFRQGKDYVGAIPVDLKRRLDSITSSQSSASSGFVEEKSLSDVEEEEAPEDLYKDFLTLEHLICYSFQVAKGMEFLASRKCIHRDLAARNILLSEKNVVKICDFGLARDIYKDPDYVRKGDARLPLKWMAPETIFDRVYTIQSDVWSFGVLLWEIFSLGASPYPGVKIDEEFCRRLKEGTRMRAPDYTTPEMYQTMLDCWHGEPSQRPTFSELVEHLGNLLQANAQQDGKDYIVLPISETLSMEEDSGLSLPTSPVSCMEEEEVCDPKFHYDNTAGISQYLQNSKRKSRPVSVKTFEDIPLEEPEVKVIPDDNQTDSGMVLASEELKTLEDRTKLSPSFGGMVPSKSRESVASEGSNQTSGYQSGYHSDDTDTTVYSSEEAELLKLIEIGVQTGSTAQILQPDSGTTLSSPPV
T2 sequence (P07949 29-1114): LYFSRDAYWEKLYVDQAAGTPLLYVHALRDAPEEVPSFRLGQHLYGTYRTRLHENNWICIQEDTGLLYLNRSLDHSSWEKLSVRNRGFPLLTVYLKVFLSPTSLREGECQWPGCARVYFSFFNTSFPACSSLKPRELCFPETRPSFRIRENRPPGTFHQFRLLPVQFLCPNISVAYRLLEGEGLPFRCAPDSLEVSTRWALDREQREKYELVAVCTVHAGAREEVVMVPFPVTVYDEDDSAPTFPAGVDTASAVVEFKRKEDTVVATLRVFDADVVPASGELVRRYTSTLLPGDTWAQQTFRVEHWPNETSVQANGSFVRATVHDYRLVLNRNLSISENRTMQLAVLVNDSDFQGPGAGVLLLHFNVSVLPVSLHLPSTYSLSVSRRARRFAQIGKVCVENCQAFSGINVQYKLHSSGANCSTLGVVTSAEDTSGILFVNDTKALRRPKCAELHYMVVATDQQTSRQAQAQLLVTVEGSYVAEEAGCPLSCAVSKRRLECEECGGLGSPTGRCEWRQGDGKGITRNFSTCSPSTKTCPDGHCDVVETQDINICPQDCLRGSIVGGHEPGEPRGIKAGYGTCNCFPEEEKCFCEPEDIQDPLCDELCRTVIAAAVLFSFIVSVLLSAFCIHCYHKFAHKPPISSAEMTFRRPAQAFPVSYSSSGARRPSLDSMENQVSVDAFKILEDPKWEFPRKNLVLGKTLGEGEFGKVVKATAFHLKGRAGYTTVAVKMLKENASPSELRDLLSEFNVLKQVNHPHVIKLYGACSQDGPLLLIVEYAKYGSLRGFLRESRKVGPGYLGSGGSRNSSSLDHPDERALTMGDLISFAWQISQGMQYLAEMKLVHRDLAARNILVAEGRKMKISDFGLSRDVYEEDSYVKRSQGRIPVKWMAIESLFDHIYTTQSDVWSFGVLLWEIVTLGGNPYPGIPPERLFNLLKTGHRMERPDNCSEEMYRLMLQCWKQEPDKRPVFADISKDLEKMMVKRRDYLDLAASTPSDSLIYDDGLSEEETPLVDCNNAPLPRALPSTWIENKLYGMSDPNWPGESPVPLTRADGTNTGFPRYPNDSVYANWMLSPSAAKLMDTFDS
T1 sequence (P07949 whole entry, change not shown, the tested form may be a part): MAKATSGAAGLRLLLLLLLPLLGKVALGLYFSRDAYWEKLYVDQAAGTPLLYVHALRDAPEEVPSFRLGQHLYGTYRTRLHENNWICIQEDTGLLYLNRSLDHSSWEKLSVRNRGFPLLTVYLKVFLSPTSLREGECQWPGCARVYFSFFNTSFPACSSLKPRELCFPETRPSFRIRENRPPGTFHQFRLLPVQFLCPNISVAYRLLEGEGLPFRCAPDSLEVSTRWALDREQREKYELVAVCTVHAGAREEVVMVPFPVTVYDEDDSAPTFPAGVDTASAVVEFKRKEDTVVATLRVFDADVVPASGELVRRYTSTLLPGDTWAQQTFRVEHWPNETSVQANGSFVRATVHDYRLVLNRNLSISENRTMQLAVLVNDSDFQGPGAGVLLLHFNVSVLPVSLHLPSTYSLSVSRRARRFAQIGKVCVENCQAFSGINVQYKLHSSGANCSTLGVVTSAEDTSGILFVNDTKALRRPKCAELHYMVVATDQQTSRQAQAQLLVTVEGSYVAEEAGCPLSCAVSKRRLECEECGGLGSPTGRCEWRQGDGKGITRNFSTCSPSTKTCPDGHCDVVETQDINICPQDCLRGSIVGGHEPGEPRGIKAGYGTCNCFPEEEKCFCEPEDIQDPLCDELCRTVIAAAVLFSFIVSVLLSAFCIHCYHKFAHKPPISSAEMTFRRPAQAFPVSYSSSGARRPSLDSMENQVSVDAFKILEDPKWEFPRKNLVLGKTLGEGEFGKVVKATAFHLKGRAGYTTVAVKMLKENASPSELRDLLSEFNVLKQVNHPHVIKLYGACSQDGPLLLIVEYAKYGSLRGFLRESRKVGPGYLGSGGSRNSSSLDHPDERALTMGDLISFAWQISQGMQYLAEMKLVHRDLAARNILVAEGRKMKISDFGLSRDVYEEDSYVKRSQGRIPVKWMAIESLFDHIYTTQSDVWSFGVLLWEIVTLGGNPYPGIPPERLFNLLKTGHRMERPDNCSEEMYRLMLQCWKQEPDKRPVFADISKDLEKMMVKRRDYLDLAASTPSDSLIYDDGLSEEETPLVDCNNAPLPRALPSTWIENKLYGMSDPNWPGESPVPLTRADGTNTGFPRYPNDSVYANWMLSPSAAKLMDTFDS
T4 sequence (P07949 29-1114 M918T): as the sequence (P07949 29-1114) above, with M890T counted along it

A word on the IC50: it is the concentration at which inhibition is half-maximal. On to `CC1(NC(=O)c2ncccc2Cl)CCN(c2ccc(-c3cc(C#CC4(O)COC4)cn4ncc(C#N)c34)cn2)CC1` [Embodiment 175, 3-Chloro-N-(1-(5-(3-cyano-6-((3-hydroxyoxetan-3-yl)ethynyl)pyrazolo[1,5-a]pyridin-4-yl)pyridin-2-yl)-4-methylpiperidin-4-yl)picolinamide], for which, on Ba/F3 KIF5B-RET cells, the GI50 was found to be 15.5 nM. Moreover, the values for the IC50 (against RET; against KDR kinase; in data set [1]) were 0.25 nM, 47 nM and 18.5 nM, respectively. In addition, on KDR kinase, the “Ratio (KDR/RET)” value is 185.
For `C#C[C@@](C)(O)COc1cc(-c2ccc(N3CC4CC(C3)N4Cc3ccc(OC)nc3)nc2)c2c(C#N)cnn2c1` [Embodiment 152, 6-(((R)-2-hydroxy-2-methylbut-3-yn-1-yl)oxy)-4-(6-(6-((6-methoxypyridin-3-yl)methyl)-3,6-diazabicyclo[3.1.1]heptan-3-yl)pyridin-3-yl)pyrazolo[1,5-a]pyridine-3-carbonitrile], the “inhibition of the phosphorylation level of ERK in TT cells, overall” value in data set [2] was “significantly inhibit”.
Turning to `COc1ncc(CN2C3CC2CN(c2ccc(-c4cc(OC[C@H]5C[C@@](C)(O)C5)cn5ncc(C#N)c45)cn2)C3)cc1F` [Embodiment 161, 4-(6-(6-((5-Fluoro-6-methoxypyridin-3-yl)methyl)-3,6-diazabicyclo[3.1.1]heptan-3-yl)pyridin-3-yl)-6-((cis-3-hydroxy-3-methylcyclobutyl)methoxy)pyrazolo[1,5-a]pyridine-3-carbonitrile], the GI50 at Ba/F3 KIF5B-RET cells stood at 8.59 nM. The IC50 against RET turned out to be 0.37 nM; against KDR kinase, 7.4 nM; in data set [1] it was 13.9 nM. The “Ratio (KDR/RET)” value at KDR kinase stood at 20.
Broadly, the MRT is the average time that molecules of a dose stay in the body. Usually Tmax stands for the time from dosing to the highest level. Regarding `COc1ccc(CN2C3CC2CN(c2ccc(-c4cc(OCC5(C#N)CC5)cn5ncc(C#N)c45)cn2)C3)cn1` [Embodiment 106, 6-((1-Cyanocyclopropyl)methoxy)-4-(6-(6-((6-methoxypyridin-3-yl)methyl)-3,6-diazabicyclo[3.1.1]heptan-3-yl)pyridin-3-yl)pyrazolo[1,5-a]pyridine-3-carbonitrile], the IC50 against RET M918T is 0.47 nM; in data set [1] it was 19 nM. Also, the MRT in data set [3] (read-out: Average residence time MRT) worked out at 4.71 h. For the same molecule, the Cmax in data set [3] (read-out: Blood concentration Cmax) was found to be 3120 ng/mL. Besides, the AUC(0-t) in data set [3] (read-out: Curve area AUC0-t) came to 18900 ng·h/mL. Besides, the AUC(0-inf) in data set [3] (read-out: Curve area AUC0-∞) turned out to be 18900 ng·h/mL. Also, the half-life in data set [3] (read-out: Half-life t1/2 (converted)) was 2.66 h. Besides, the Tmax in data set [3] (read-out: Peak time tmax) was 0.5 h.
